Literature values in patent US12364655B2, “Semisolid oral dispersions comprising active agents” (The Procter & Gamble Company, priority 2019, dated 2025).
Like-named read-outs stand apart in the source and are kept apart here.

Details: from supplier Safety Data Sheet, supplier Product Data Sheet (estimated) or Wikipedia

NC(N)=O.OO [Urea Peroxide, Urea Hydrogen Peroxide Adduct]
Solubility in Water (number of parts by weight per 100 parts by weight of water): 80 parts by weight per 100 parts by weight of water
Solubility in Water (number of parts by weight per 100 parts by weight of water) (listed as urea peroxide): 80 parts by weight per 100 parts
